Data as given in patent US12611406B2, “Oxopiperazine derivatives for the treatment of cancer” (Inthera Bioscience AG, priority 2020, dated 2026).
Entries after “also recorded” stand apart in the source; their conditions may differ.

What was measured:
[1] = tested on: DU-145 cells; experiment: Annexin V staining; assay type: cell-based
[2] = 5-day daily intravenous repeated-dose TK study in CD-1 mice (mesylate salt); assay type: in vivo; conditions: for half-life: both sexes, CD-1, mouse, blood, intravenous
Method: The aim of the present study was to explore the TK of Compound 1 after 5 days of once daily intravenous dosing in male and female CD-1 mice, with a subsequent recovery phase of 9 days.
Compound 1 (mesylate salt) was administered once daily for 5 consecutive days by intravenous injection to groups of CD-1 mice (n=8/sex/group) at dose levels of 0 (control), 0.5, 2, 6, or 12 mg/kg/day. A suspension of 0.5% methylcellulose (w/v) in sterile water was used as vehicle. Blood samples were collected for hematology, clinical chemistry (Day 6 and 15), and pharmacokinetics evaluation.

[3] = tested on: DU-145; experiment: DU-145 CDX mouse model; assay type: in vivo; conditions: once weekly 60 mg/kg/day as 30 mg/kg BID, 4 weeks; p <0.001
From the text: Values larger than 100% indicate tumor regression.

[4] = 14-day daily oral repeated-dose DRF study in cynomolgus monkeys (mesylate salt); assay type: in vivo; conditions: for half-life / AUC(0-t) / Cmax / Tmax: cynomolgus monkey, plasma
Method: The objective of this exploratory study was to assess the TK profile of Compound 1 when repeatedly administered via the oral route to cynomolgus monkeys.
Compound 1 (mesylate salt) administration in this dose-range-finder study was intended once daily for up to 14 consecutive days by oral gavage to groups of naïve cynomolgus monkeys (n=1/sex/group) at dose levels of 0.5, 4, 8, or 12 mg Compound 1 per kg bodyweight and day, using a staggered approach. The vehicle was 0.5% Methylcellulose in water. The actual dose levels and durations of dosing were flexibly adapted according to signs of tolerability and PK: Group 1 animals were dosed at 0.5 mg/kg/day for 10 days and after a 4-day washout phase for additional 12 days at 4 mg/kg/days; Group 2 animals at 12 mg/kg/day for 11 days; Group 3 animals at 8 mg/kg for 10 (males) or 9 (females) days; and Group 4 animals at 8 mg/kg for 5 days, respectively, as summarized in Table 10.
The animals in the final group 4 were dosed orally once daily or 5 days with 8 mg/kg Compound 1 before a 9-day recovery phase was given.

[5] = tested on: LNCaP cells; experiment: Cell cycle distribution with siRNA-mediated knock-down of Rb and p53; assay type: cell-based; conditions: LNCaP treated with Rb/p53 siRNA, 24 h
Method: Top panel: Cell cycle distribution in LNCap cells treated with siRNA (2 bars on the right) in comparison to control LNCaP cells without siRNA treatment (2 bars in the middle), in the absence (−) or presence (+) of Compound 1 for 24 h at the indicated concentration. For comparison, DU-145 cells harboring a combined Rb1 and p53 loss-of-function are included (2 bars on the left). Lower panel: Western blot analysis according to the same experimental conditions as given for the top panel.
In in vitro studies using LNCaP PC cells, harboring wild-type Rb and p53 genes, the effect of Compound 1 on the cell cycle was investigated in the absence and presence of siRNA-mediated knock-down of Rb and p53 gene expression. […] This effect is hypothesized to be due to Compound 1-mediated perturbation of the interaction between p300 and DDR factors and subsequent impact on the late cell cycle checkpoints and the DDR leading to cell death.

[6] = tested on: PR6511; experiment: PR6511 mouse PDX prostate cancer model, daily oral; assay type: in vivo
Method: PR6511 represents a model which was not responsive any more to enzalutamide treatment. The dose in the 10 mg/kg group was reduced to 3 mg/kg from day 51 onwards. […] QD: once daily treatment. po: per os.
Due to weight loss, animals of the 10 mg/kg group received a reduced dose of 3 mg/kg on study days 51 to 57.

[7] = tested on: NCI-H69; experiment: NCI-H69 small cell lung cancer CDX mouse model; conditions: for Tumor growth inhibition: p <0.001
Method: The 30 mg/kg group was given initially QW at 30 mg/kg and from day 31 onwards was given once weekly at 60 mg/kg, as indicated.
In Table 2, tumor growth inhibition (TGI) calculations are based on additional growth of tumors, i.e., tumor sizes on the day of TGI estimation minus tumor sizes at the start of treatment are used for calculations. Values larger than 100% indicate tumor regression. […] The total daily dose of 60 mg/kg was administered as *single dose or given as **30 mg/kg BID (twice daily).

[8] = both sexes, po, 0.5 mg/kg, 0.5 mg/kg (Gr. 1), Day 1
[9] = both sexes, po, 8 mg/kg, 8 mg/kg (Gr. 3), Day 1
[10] = both sexes, po, 8 mg/kg, 8 mg/kg (Gr. 3), Day 5
[11] = both sexes, po, 8 mg/kg, 8 mg/kg (Gr. 4), Day 1
[12] = both sexes, po, 8 mg/kg, 8 mg/kg (Gr. 4), Day 5
[13] = both sexes, po, 12 mg/kg, 12 mg/kg (Gr. 2), Day 1
[14] = both sexes, po, 12 mg/kg, 12 mg/kg (Gr. 2), Day 7
[15] = po, 0.5 mg/kg, 0.5 mg/kg (Gr. 1), Day 7
[16] = po, 4 mg/kg, 4 mg/kg (Gr. 1), Day 1
[17] = po, 4 mg/kg, 4 mg/kg (Gr. 1), Day 5
[18] = po, 4 mg/kg, 4 mg/kg (Gr. 1), Day 11
[19] = 10 mg/kg (3 mg/kg on days 51-57) once daily

Compound: CC(C)C[C@@H]1NCCN([C@@H](CC(C)C)C(=O)N2CCC3(C[C@@H]2C)OCC(CN2CCCC2)CO3)C1=O (stereo partly drawn) [Compound 1, (S)-3-isobutyl-1-((S)-4-methyl-1-((S)-8-methyl-3-(pyrrolidin-1-ylmethyl)-1,5-dioxa-9-azaspiro[5.5]undecan-9-yl)-1-oxopentan-2-yl)piperazin-2-one]
- Annexin V staining [1]: induction of apoptosis
- group mean initial blood concentration (CO) ([2]; 0.5 mg/kg/day, Day 1): 111 ng/mL
- CO ([2]; 0.5 mg/kg/day, Day 5, female): 112 ng/mL
- CO ([2]; 0.5 mg/kg/day, Day 5, male): 191 ng/mL
- group mean initial blood concentration (CO) ([2]; 2 mg/kg/day, Day 1): 386 ng/mL
- CO ([2]; 2 mg/kg/day, Day 5, female): 391 ng/mL
- CO ([2]; 2 mg/kg/day, Day 5, male): 275 ng/mL
- group mean initial blood concentration (CO) ([2]; 6 mg/kg/day, Day 1): 1257 ng/mL
- CO ([2]; 6 mg/kg/day, Day 5, female): 641 ng/mL
- CO ([2]; 6 mg/kg/day, Day 5, male): 778 ng/mL
- group mean initial blood concentration (CO) ([2]; 12 mg/kg/day, Day 1): 1725 ng/mL
- CO ([2]; 12 mg/kg/day, Day 5, female): 1548 ng/mL
- CO ([2]; 12 mg/kg/day, Day 5, male): 1531 ng/mL
- tolerability ([2]; 0.5, 2, 6, and 12 mg/kg/day intravenously once daily for 5 consecutive days): well tolerated; also recorded: well-tolerated
- half-life ([2]; all groups, Day 1, read-out: terminal half-life): 1.1 to 1.3 h
- half-life ([2]; over the dose interval, Day 5, read-out: elimination half-life): 1.1 to 1.9 h
- Tumor growth inhibition [3]: 72 (<0.001)/**4 weeks %
- half-life ([4]; both sexes, oral, in general, all groups, read-out: mean terminal plasma elimination half-lives): 4.4 to 8.4 h
- AUC(0-t) [4, 8]: 0.7 ng·h/mL
- Cmax [4, 8]: 0.24 ng/mL
- Tmax [4, 8]: 1.5 h
- half-life ([4]; both sexes, po, 0.5 mg/kg, 0.5 mg/kg (Gr. 1), Day 1, read-out: T1/2 (converted)): 4.9 h
- half-life ([4]; both sexes, po, 4 mg/kg, 4 mg/kg (Gr. 1), Day 11, read-out: T1/2 (converted)): 5.1 h
- AUC(0-t) [4, 9]: 64.9 ng·h/mL
- Cmax [4, 9]: 21.7 ng/mL
- Tmax [4, 9]: 1 h
- half-life ([4]; both sexes, po, 8 mg/kg, 8 mg/kg (Gr. 3), Day 1, read-out: T1/2 (converted)): 4.6 h
- AUC(0-t) [4, 10]: 92 ng·h/mL
- Cmax [4, 10]: 18.8 ng/mL
- Tmax [4, 10]: 1 h
- half-life ([4]; both sexes, po, 8 mg/kg, 8 mg/kg (Gr. 3), Day 5, read-out: T1/2 (converted)): 6.5 h
- AUC(0-t) [4, 11]: 30.4 ng·h/mL
- Cmax [4, 11]: 8.95 ng/mL
- Tmax [4, 11]: 1 h
- half-life ([4]; both sexes, po, 8 mg/kg, 8 mg/kg (Gr. 4), Day 1, read-out: T1/2 (converted)): 5.4 h
- AUC(0-t) [4, 12]: 51.3 ng·h/mL
- Cmax [4, 12]: 13.8 ng/mL
- Tmax [4, 12]: 1.5 h
- half-life ([4]; both sexes, po, 8 mg/kg, 8 mg/kg (Gr. 4), Day 5, read-out: T1/2 (converted)): 6.4 h
- AUC(0-t) [4, 13]: 86 ng·h/mL
- Cmax [4, 13]: 31.2 ng/mL
- Tmax [4, 13]: 1 h
- half-life ([4]; both sexes, po, 12 mg/kg, 12 mg/kg (Gr. 2), Day 1, read-out: T1/2 (converted)): 6.6 h
- AUC(0-t) [4, 14]: 214 ng·h/mL
- Cmax [4, 14]: 48.8 ng/mL
- Tmax [4, 14]: 1 h
- half-life ([4]; both sexes, po, 12 mg/kg, 12 mg/kg (Gr. 2), Day 7, read-out: T1/2 (converted)): 7.4 h
- Tmax ([4]; both sexes, po, after oral administration, all groups): 1 to 1.5 h
- AUC(0-t) [4, 15]: 1.2 ng·h/mL
- Cmax [4, 15]: 0.18 ng/mL
- Tmax [4, 15]: 1 h
- half-life ([4]; po, 0.5 mg/kg, 0.5 mg/kg (Gr. 1), Day 7, read-out: T1/2 (converted)): 18.5 h
- AUC(0-t) [4, 16]: 10.5 ng·h/mL
- Cmax [4, 16]: 2.95 ng/mL
- Tmax [4, 16]: 1 h
- half-life ([4]; po, 4 mg/kg, 4 mg/kg (Gr. 1), Day 1, read-out: T1/2 (converted)): 4.4 h
- AUC(0-t) [4, 17]: 9.5 ng·h/mL
- Cmax [4, 17]: 2.3 ng/mL
- Tmax [4, 17]: 1 h
- half-life ([4]; po, 4 mg/kg, 4 mg/kg (Gr. 1), Day 5, read-out: T1/2 (converted)): 8.4 h
- AUC(0-t) [4, 18]: 10.9 ng·h/mL
- Cmax [4, 18]: 3.06 ng/mL
- Tmax [4, 18]: 1 h
- tolerability ([4]; daily 0.5 and 4 mg/kg/day for 10 or 12 days): tolerated
- tolerability ([4]; daily 8 and 12 mg/kg/day for 10 days): not tolerated
- cell cycle response [5]: increase of cells in the S-phase
- complete responders ([6]; 6 mg/kg once daily): 3/8
- partial responder ([6]; 6 mg/kg once daily): 2/8
- tumor-free survivors ([6]; 6 mg/kg once daily): 3/8
- complete responders [6, 19]: 4/8
- partial responders [6, 19]: 2/8
- tumor-free survivors [6, 19]: 3/8
- tumor response ([6]; 10 mg/kg for approx. 8-10 days, then breaks/3 mg/kg days 51-57): full tumor regressions
- tumor re-growth ([6]; 3 weeks after end of treatment, fully regressed tumors): no re-growth of tumors
- tumor response ([6]; 6 or 10 mg/kg daily oral, study days 38-57): substantial tumor regressions up to erradication of tumors
- PSA in blood ([6]; PR6511): effective PSA reduction
- body weight ([7]; 3 mg/kg oral daily continuous): slight body weight loss
- tumor response ([7]; 3 mg/kg oral daily continuous): regressions of tumors
- tolerability ([7]; 3 mg/kg oral every other week): well tolerated
- anti-tumor activity, every other week vs daily ([7]; 3 mg/kg oral, every other week compared to same dose daily): almost the same anti-tumor growth activity
- anti-tumor activity, once weekly vs daily ([7]; 30 mg/kg once every seven days, 60 mg/kg weeks 4 to 7, compared to 3 mg/kg daily): same anti-tumor growth activity
- body weight ([7]; intermittent (once weekly) dosing): did not cause significant body weight decreases
- Tumor growth inhibition ([7]; once weekly 15 mg/kg/day, 7 weeks): 58% (<0.001)/
- Tumor growth inhibition ([7]; once weekly 30 mg/kg/day, 3 weeks): 76% (<0.001)/
- Tumor growth inhibition ([7]; once weekly 60 mg/kg/day, 4 weeks, after 3 weeks at 30 mg/kg): 103% (<0.001)/
